Data set [1] concerns HepG2 mitochondrial protein synthesis. As to the kind of experiment: cells. Particulars: Homo sapiens, read-out: MPS IC50. Set-up: mitochondrial protein synthesis inhibition in HepG2 cells. Here is the method:
(§1) MPS inhibition and cytotoxicity assays MPS and cytotoxicity of experimental compounds and PTC-targeting controls against HepG2 (liver hepatocellular carcinoma cells ATCC HB-8065) were performed as previously described without any modifications (see ref. [56] for MPS assay and ref. [78] for cytotoxicity assay). […] Results reported as mean ± s.d., n = 3 biological replicate. The requirement for FF-NH2 to be activated by Eis2 led us to hypothesize that it would lack the mitochondrial protein synthesis (MPS) inhibition liability of other PTC-targeting agents. We therefore profiled FF-NH2, FF-ac and other analogues for MPS inhibition activity.

Data set [2] can be described thus: in vitro. Set-up: HepG2 cytotoxicity, Cell-Titer Glo. Particulars: human, hepg2 cells; read-out: HepG2 Cytotoxicity IC50. The method, then:
as §1, with “MPS” for “MPS inhibition and cytotoxicity assays MPS”

Data set [3] deals with NCC[C@H](O)C(=O)N[C@@H]1C[C@H](N)[C@@H](O[C@H]2O[C@H](CN)[C@@H](O)[C@H](O)[C@H]2O)[C@H](O)[C@H]1O[C@H]1O[C@H](CO)[C@@H](O)[C@H](N)[C@H]1O. Put plainly: purified protein, by the assay type. On the set-up: Eis2 acetyltransferase kinetics, Michaelis-Menten fit for substrate. The source says:
Consistent with previous findings, the aminoglycoside controls AMK and [compound left out] were also shown as substrates of Eis2 (ref. [47]), as well as CAM-NH2 and TAM-NH2. […] These findings highlight how specific chemical modifications to antibiotics govern substrate specificity and antimicrobial efficacy.

For data set [4], the system named is T1, M. abscessus WT.
T1 construct: ATCC 19977
Put plainly: microbe, parasite or virus in culture. Set-up: broth microdilution MIC according to CLSI, read at 14 days. Particulars: Mycobacteroides abscessus, 336 h, read-out: WT MIC (µg/mL), day 14.

The target in data set [5] is T2, Eis2 (Mycobacteroides abscessus, UniProt B1MKV6).
T2 construct: gene MAB_4532c; Eis2–pET30a, TEV cleavable N-terminal 6 histidine tag (removed)
Put plainly: Michaelis-Menten acetylation kinetics with purified Eis2, DTNB free-thiol assay. Type of data set: biochemical.

In data set [6] the target is T2, Eis2. Put plainly: Michaelis-Menten acetylation kinetics with purified Eis2, DTNB free-thiol assay (control substrate). Type of data set: biochemical.

Results on 17 compounds are retold here after PMC12578646, “Prodrug florfenicol amine is activated by intrinsic resistance to target Mycobacterium abscessus” (Nature Microbiology, 2025).

≈ marks a conversion by molar mass, not a printed value.

T2 sequence (B1MKV6 entry or part of it): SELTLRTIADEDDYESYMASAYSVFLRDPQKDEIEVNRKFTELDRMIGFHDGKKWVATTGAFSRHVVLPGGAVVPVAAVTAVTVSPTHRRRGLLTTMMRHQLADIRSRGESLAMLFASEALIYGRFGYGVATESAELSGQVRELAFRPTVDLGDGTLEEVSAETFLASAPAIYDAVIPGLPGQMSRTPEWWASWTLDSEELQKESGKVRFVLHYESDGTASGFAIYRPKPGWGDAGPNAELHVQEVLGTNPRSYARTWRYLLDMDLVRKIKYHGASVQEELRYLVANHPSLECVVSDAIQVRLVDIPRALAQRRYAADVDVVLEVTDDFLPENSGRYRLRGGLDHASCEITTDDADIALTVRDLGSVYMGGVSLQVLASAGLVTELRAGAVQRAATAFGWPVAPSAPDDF

As for `CS(=O)(=O)c1ccc([C@@H](O)[C@@H](CF)NC(=O)C(Cl)Cl)cc1` [Florfenicol], in data set [1], the IC50 is 1.2 ± 0.2 µM. Also, in data set [2], the CC50 at 72 h was more than 200 µM.

In the case of `O=C1CN(/N=C/c2ccc([N+](=O)[O-])o2)C(=O)N1` [Nitrofurantoin, nitrofurantoin], the CC50 at 72 h in data set [2] was found to be 6.8 ± 0.3 µM.

As to `O=C(N[C@H](CO)[C@H](O)c1ccc([N+](=O)[O-])cc1)C(Cl)Cl` [Chloramphenicol], the IC50 in data set [1] came to 5.5 ± 2.5 µM. The CC50 at 72 h in data set [2] was more than 200 µM.

Take `CC(=O)N[C@H](CF)[C@H](O)c1ccc(S(C)(=O)=O)cc1` [FF-ac, florfenicol acetyl]: in data set [1], the IC50 is 4.7 ± 1.7 µM. Further, in data set [2], the CC50 at 72 h was more than 200 µM.

Take “Eis2 (Mycobacteroides abscessus ATCC 19977)”: in data set [3], the Km amounted to 232.6 ± 26 µM, the Vmax turned out to be 6 µM/min, the kcat came to 4.7 ± 0.5 s⁻¹ and the kcat/Km came to 20000 ± 320 M⁻¹ s⁻¹.

For `CC[C@H]1OC(=O)[C@H](C)[C@@H](O[C@H]2C[C@@](C)(OC)[C@@H](O)[C@H](C)O2)[C@H](C)[C@@H](O[C@@H]2O[C@H](C)C[C@H](N(C)C)[C@H]2O)[C@](C)(O)C[C@@H](C)C(=O)[C@H](C)[C@@H](O)[C@]1(C)O` [ERY], in data set [4], the MIC was more than 32 µg/mL.

For `N[C@H](CO)[C@H](O)c1ccc([N+](=O)[O-])cc1` [CAM-NH2, chloramphenicol amine], in data set [1], the IC50 was more than 100 µM. Further, the CC50 at 72 h in data set [2] was more than 200 µM.

For the compound `CC[C@H]1OC(=O)[C@H](C)[C@@H](O[C@H]2C[C@@](C)(OC)[C@@H](O)[C@H](C)O2)[C@H](C)[C@@H](O[C@@H]2O[C@H](C)C[C@H](N(C)C)[C@H]2O)[C@](C)(OC)C[C@@H](C)C(=O)[C@H](C)[C@@H](O)[C@]1(C)O` [CLR], the MIC in data set [4] came out at 2 µg/mL (≈ 2.67 µM).

For the compound `CC[C@H]1OC(=O)[C@H](C)[C@@H](O[C@H]2C[C@@](C)(OC)[C@@H](O)[C@H](C)O2)[C@H](C)[C@@H](O[C@@H]2O[C@H](C)C[C@H](N(C)C)[C@H]2O)[C@](C)(O)C[C@@H](C)CN(C)[C@H](C)[C@@H](O)[C@]1(C)O` [AZITH], in data set [4], the MIC was more than 32 µg/mL.

Turning to `CN[C@@H]1[C@H](O)[C@H](NC)[C@H]2O[C@@]3(O)C(=O)C[C@@H](C)O[C@H]3O[C@@H]2[C@H]1O` [SPC], the MIC in data set [4] came to 512 µg/mL (≈ 1540 µM).

Take `CC(=O)NC[C@H]1CN(c2ccc(N3CCOCC3)c(F)c2)C(=O)O1` [LZD]: the MIC in data set [4] is 8 µg/mL (≈ 23.7 µM).

With `CC(=O)NC[C@H]1CN(c2ccc(N3CCOCC3)c(F)c2)C(=O)O1` [Linezolid], the half-inhibitory concentration (IC50) in data set [1] amounted to 6.2 ± 1.6 µM. Also, the CC50 at 72 h in data set [2] is more than 200 µM.

Regarding `CSc1ccc2c(c1)N(CCC1CCCCN1C)c1ccccc1S2` (stereo not shown) [Thioridazine, thioridazine], the CC50 at 72 h in data set [2] came to 6.6 ± 0.3 µM.

Take `CS(=O)(=O)c1ccc([C@@H](O)[C@H](N)CF)cc1` [FF-NH2, florfenicol amine]: in data set [1], the IC50 was more than 100 µM. Moreover, the CC50 at 72 h in data set [2] is more than 200 µM. Moreover, the MIC in data set [4] lay within 62.5 to 125 µg/mL (≈ 253 to 505 µM). Also, in data set [5], the “Michaelis-Menten acetylation kinetics with purified Eis2, DTNB free-thiol assay” value is on record as “kcat/KM 6.7 × 10^3 ± 5.1 × 10^2”.

For `CS(=O)(=O)c1ccc([C@@H](O)[C@@H](CO)NC(=O)C(Cl)Cl)cc1` [Thiamphenicol], the half-inhibitory concentration (IC50) in data set [1] is 1.4 ± 0.7 µM. Also, the CC50 at 72 h in data set [2] was more than 200 µM.

`CS(=O)(=O)c1ccc([C@@H](O)[C@H](N)CO)cc1` [TAM-NH2, thiamphenicol amine]: the IC50 in data set [1] was more than 100 µM. Also, in data set [2], the CC50 at 72 h is more than 200 µM.

For the compound `NCC[C@H](O)C(=O)N[C@@H]1C[C@H](N)[C@@H](O[C@H]2O[C@H](CN)[C@@H](O)[C@H](O)[C@H]2O)[C@H](O)[C@H]1O[C@H]1O[C@H](CO)[C@@H](O)[C@H](N)[C@H]1O` [AMK, amikacin], the MIC in data set [4] was 4 to 8 µg/mL (≈ 6.83 to 13.7 µM). In addition, the “Michaelis-Menten acetylation kinetics with purified Eis2, DTNB free-thiol assay” value in data set [6] is “the aminoglycoside controls AMK and hygromycin B were also shown as substrates of Eis2”.

By IC50 is commonly meant the point on the concentration scale where inhibition reaches its midpoint. A word on the Km: it is the substrate concentration at which the rate is half of its maximum. Usually Vmax stands for the rate approached at saturating substrate. In general, kcat refers to the number of substrate molecules converted per active site and unit of time at saturation. The term kcat/Km denotes the second-order rate constant that governs catalysis at low substrate concentration.
